≈ marks a conversion by molar mass, not a printed value.
Tests used:
Type in all cases: cell-based
S. pneumoniae = test: MIC by agar plate dilution against clinical isolates of S. pneumoniae; settings: 6 strains of S. pneumoniae (clinical isolates), 18 to 24 hr, 35° C; for MIC: Streptococcus pneumoniae, read-out: MIC or MIC range, S. pneumoniae
Protocol: (§1) Minimal Inhibitory concentrations (MIC) of inhibitors against clinical isolates of S. pneumoniae, H. influenzae and M. catarrhalis obtained from the Public Health and Clinical Microbiology Laboratory, Addenbrooke's Hospital, Hills Road, Cambridge CB2 2QW, UK, were determined by a standard agar plate dilution method following recommended in British Society for Antimicrobial Chemotherapy Working Party. 1991. “A guide to sensitivity testing British Society for Antimicrobial Chemotherapy, London, United Kingdom”. Briefly Iso-Sensitest agar (pH 7.2: Oxoid, United Kingdom) was employed supplemented with 5% horse blood (Oxoid) and 20 μg of NAD (Sigma) per ml to support growth of fastidious bacteria. The inoculum used was approximately 10^4 colony forming units of each isolate contained in a volume of 1 μl. Plates were incubated 18 to 24 hr in air, or for fastidious bacteria an atmosphere enriched with 4–6% carbon dioxide at 35° C. The MIC was determined as the lowest concentration of an antimicrobial tested that inhibited growth of the inoculum, disregarding a single persisting colony or faint haze caused by the inoculation.
(§2) The compounds of the Examples were are antibacterially active in the above assays, The following table states the MICs or MIC ranges of the tested compounds against 6 strains of S. pneumoniae, 4 strains of H. influenzae and 3 strains of M. catarrhalis.

H. influenzae = test: MIC by agar plate dilution against clinical isolates of H. influenzae; settings: 4 strains of H. influenzae (clinical isolates), 18 to 24 hr, 35° C; for MIC: Haemophilus influenzae, read-out: MIC or MIC range, H. Influenzae
Protocol: as §1, §2

M. catarrhalis = test: MIC by agar plate dilution against clinical isolates of M. catarrhalis; settings: 3 strains of M. catarrhalis (clinical isolates), 18 to 24 hr, 35° C; for MIC: Moraxella catarrhalis, read-out: MIC or MIC range, M. catarrhalis
Protocol: as §1, §2

Row | Compound | MIC or MIC range, S. pneumoniae (S. pneumoniae) | MIC or MIC range, H. Influenzae (H. influenzae) | MIC or MIC range, M. catarrhalis (M. catarrhalis) | MIC (S. pneumoniae) | MIC (H. influenzae) | MIC (M. catarrhalis)
1 | CN(C(=O)N1CCCCN1C(=O)[C@H](CC1CCCC1)CN(O)C=O)c1ccccc1 [Example 21, 2-[(2R)-Cyclopentylmethyl-3-(formylhydroxyamino)-propionyl]-tetrahydropyridazine-1-Carboxylic acid methylphenylamide] | 1 to 4 µg/mL | 4 to 16 µg/mL | 0.125 µg/mL (≈ 0.3 µM) | – | – | –
2 | CC(C)(C)OC(=O)N1CCCN1C(=O)[C@H](CC1CCCC1)CN(O)C=O [Example 23, 2-[(2R)-Cyclopentylmethyl-3-(formylhydroxyamino)-propionyl]-pyrazolidine-1-Carboxylic acid tert-butyl ester] | 8 to 16 µg/mL | 0.5 to 2 µg/mL | <0.125 µg/mL | – | – | –
3 | CC(C)(C)OC(=O)N1CCCCN1C(=O)[C@H](CC1CCCC1)CN(O)C=O [Example 24, 2-[(2R)-Cyclopentylmethyl-3-(formylhydroxyamino)-propionyl]-tetrahydropyridazine-1-Carboxylic acid tert-butyl ester] | – | – | – | 4 to 16 µg/mL (≈ 10.4 to 41.7 µM) | 1 to 4 µg/mL (≈ 2.61 to 10.4 µM) | < 0.125 µg/mL
4 | COCC(=O)N1CCCN1C(=O)[C@H](CC1CCCC1)CN(O)C=O [Example 26, N-{(2R)-Cyclopentylmethyl-3-[2-(2-methoxyacetyl)-pyrazolidin-1-yl]-3-oxo-propyl}N-hydroxyformamide] | – | – | – | 8 µg/mL (≈ 23.4 µM) | 1 to 8 µg/mL (≈ 2.93 to 23.4 µM) | 0.125 µg/mL (≈ 0.366 µM)
5 | O=CN(O)C[C@@H](CC1CCCC1)C(=O)N1CCCN1C(=O)c1ccccc1 [Example 27, N-{(2R)-Cyclopentylmethyl-3-[2-benzoyl-pyrazolidin-1-yl]-3-oxo-propyl}-N-hydroxyformamide] | – | – | – | 16 µg/mL (≈ 42.8 µM) | 2 to 16 µg/mL (≈ 5.36 to 42.8 µM) | 0.06 µg/mL (≈ 0.161 µM)
6 | O=CN(O)C[C@@H](CC1CCCC1)C(=O)N1CCCN1C(=O)c1ccc(C(F)(F)F)cc1 [Example 28, N-{(2R)-Cyclopentylmethyl-3-[2-(4-trifluoromethylbenzoyl)-pyrazolidin-1-yl]-3-oxo-propyl}-N-hydroxyformamide] | – | – | – | 0.5 to 4 µg/mL (≈ 1.13 to 9.06 µM) | 16 µg/mL (≈ 36.2 µM) | 0.06 µg/mL (≈ 0.136 µM)
7 | O=CN(O)C[C@@H](CC1CCCC1)C(=O)N1CCCN1C(=O)Cc1ccccc1 [Example 29, N-{(2R)-Cyclopentylmethyl-3-[2-phenylacetyl-pyrazolidin-1-yl]-3-oxo-propyl}-N-hydroxyformamide] | – | – | – | 4 to 8 µg/mL (≈ 10.3 to 20.6 µM) | 2 to 16 µg/mL (≈ 5.16 to 41.3 µM) | 0.06 µg/mL (≈ 0.155 µM)
8 | O=CN(O)C[C@@H](CC1CCCC1)C(=O)N1CCCN1C(=O)C1CCCCC1 [Example 31, N-{(2R)-Cyclopentylmethyl-3-[2-Cyclohexanecarbonyl-pyrazolidin-1-yl]-3-oxo-propyl}-N-hydroxyformamide] | – | – | – | 8 µg/mL (≈ 21.1 µM) | 4 to 16 µg/mL (≈ 10.5 to 42.2 µM) | 0.06 µg/mL (≈ 0.158 µM)
9 | O=CN(O)C[C@@H](CC1CCCC1)C(=O)N1CCCN1C(=O)c1ccc(N2CCOCC2)nc1 [Example 32, N-{(2R)-Cyclopentylmethyl-3-[2-(6-morpholin-4-yl-pyridine-3-Carbonyl)-pyrazolidin-1-yl]-3-oxo-propyl}-N-hydroxyformamide] | – | – | – | 1 to 8 µg/mL (≈ 2.18 to 17.4 µM) | 16 µg/mL (≈ 34.8 µM) | 0.25 µg/mL (≈ 0.544 µM)
10 | COc1ccc(C(=O)N2CCCN2C(=O)[C@H](CC2CCCC2)CN(O)C=O)cc1 [Example 33, N-{(2R)-Cyclopentylmethyl-3-[2-(4-methoxybenzoyl)-pyrazolidin-1-yl]-3-oxo-propyl}-N-hydroxyformamide] | – | – | – | 4 to 16 µg/mL (≈ 9.91 to 39.7 µM) | 16 to 32 µg/mL (≈ 39.7 to 79.3 µM) | 0.06 µg/mL (≈ 0.149 µM)
11 | O=CN(O)C[C@@H](CC1CCCC1)C(=O)N1CCCN1C(=O)c1ccc2c(c1)OCO2 [Example 34, N-{(2R)-Cyclopentylmethyl-3-[2-(benzo[1,3]-dioxole-5-Carbonyl)-pyrazolidin-1-yl]-3-oxo-propyl}N-hydroxyformamide] | – | – | – | 8 to 16 µg/mL (≈ 19.2 to 38.3 µM) | 4 to 16 µg/mL (≈ 9.58 to 38.3 µM) | 0.125 µg/mL (≈ 0.299 µM)
12 | O=CN(O)C[C@@H](CC1CCCC1)C(=O)N1CCCN1C(=O)c1ccc(F)cc1 [Example 35, N-{(2R)-Cyclopentylmethyl-3-[2-(4-fluorobenzoyl)-pyrazolidin-1-yl]-3-oxo-propyl}-N-hydroxyformamide] | – | – | – | 16 µg/mL (≈ 40.9 µM) | 4 to 8 µg/mL (≈ 10.2 to 20.4 µM) | 0.125 µg/mL (≈ 0.319 µM)
13 | O=CN(O)C[C@@H](CC1CCCC1)C(=O)N1CCCN1C(=O)c1cccnc1 [Example 36, N-{(2R)-Cyclopentylmethyl-3-[2-(pyridine-3-Carbonyl)-pyrazolidin-1-yl]-3-oxo-propyl}N-hydroxyformamide] | – | – | – | 8 µg/mL (≈ 21.4 µM) | 2 to 32 µg/mL (≈ 5.34 to 85.5 µM) | 0.125 µg/mL (≈ 0.334 µM)
14 | COc1ccccc1NC(=O)N1CCCN1C(=O)[C@H](CC1CCCC1)CN(O)C=O [Example 38, 2-[(2R)-Cyclopentylmethyl-3-(formylhydroxyamino)-propionyl]-pyrazolidine-1-Carboxylic acid (2-methoxyphenyl)amide] | 8 to 16 µg/mL | 1 to 2 µg/mL | 0.25 µg/mL (≈ 0.597 µM) | – | – | –
15 | O=CN(O)C[C@@H](CC1CCCC1)C(=O)N1CCCN1C(=O)Nc1ccccc1 [Example 39, 2-[(2R)-Cyclopentylmethyl-3-(formylhydroxyamino)-propionyl]-pyrazolidine-1-Carboxylic acid phenylamide] | – | – | – | 4 to 16 µg/mL (≈ 10.3 to 41.2 µM) | 0.125 to 2 µg/mL (≈ 0.322 to 5.15 µM) | < 0.125 µg/mL
16 | O=CN(O)C[C@@H](CC1CCCC1)C(=O)N1CCCN1C(=O)Nc1ccc(F)cc1 [Example 40] | – | – | – | 8 to 16 µg/mL (≈ 19.7 to 39.4 µM) | 0.125 to 2 µg/mL (≈ 0.308 to 4.92 µM) | < 0.125 µg/mL
17 | COc1cccc(NC(=O)N2CCCN2C(=O)[C@H](CC2CCCC2)CN(O)C=O)c1 [Example 41, 2-[(2R)-Cyclopentylmethyl-3-(formylhydroxyamino)-propionyl]-pyrazolidine-1-Carboxylic acid (3-methoxyphenyl)amide] | – | – | – | 4 to 8 µg/mL (≈ 9.56 to 19.1 µM) | 0.125 to 2 µg/mL (≈ 0.299 to 4.78 µM) | < 0.125 µg/mL
18 | O=C(C[C@@H](CC1CCCC1)C(=O)N1CCCCN1C(=O)c1ccco1)NO [Example 44, (3R)-Cyclopentylmethyl-4-[2-(furan-2-Carbonyl)-tetrahydropyridazin-1-yl]-N-hydroxy-4-oxo-butyramide] | 2 to 4 µg/mL | 0.06 to 0.125 µg/mL | 0.6 µg/mL (≈ 1.59 µM) | – | – | –
19 | (2R)-Cyclopentylmethyl-3-[2-(furan-2-Carbonyl)-pyrazolidin-1-yl]-3-oxo-propyl}formamide [Example 25] | 4 to 8 µg/mL | <0.125 to 1 µg/mL | <0.125 µg/mL | – | – | –
20 | (2R)-Cyclopentylmethyl-3-[2-(furan-2-Carbonyl)-tetrahydropyridazin-1-yl]-3-oxo-propyl}formamide [Example 1] | 0.5 to 2 µg/mL | <0.125 to 0.25 µg/mL | <0.125 µg/mL | – | – | –
